# Assay results: ChEMBL document CHEMBL1201862, “PubChem BioAssay data set” (2004)
# Where “and” joins values, the source holds several entries; their conditions need not be identical. Identical values can stand only once. Calls of active or inactive are those of the source.
# Tests used:
# [1] = molecular target: T1, Carboxy-terminal domain RNA polymerase II polypeptide A small phosphatase 1 (Homo sapiens, UniProt Q9GZU7); test: inhibitors of CTDSP1, concentration-response testing, biochemical assay, absorbance-based, actives from ultra-high-throughput screening (AID 540297); format: functional
# T1 sequence (Q9GZU7 whole entry): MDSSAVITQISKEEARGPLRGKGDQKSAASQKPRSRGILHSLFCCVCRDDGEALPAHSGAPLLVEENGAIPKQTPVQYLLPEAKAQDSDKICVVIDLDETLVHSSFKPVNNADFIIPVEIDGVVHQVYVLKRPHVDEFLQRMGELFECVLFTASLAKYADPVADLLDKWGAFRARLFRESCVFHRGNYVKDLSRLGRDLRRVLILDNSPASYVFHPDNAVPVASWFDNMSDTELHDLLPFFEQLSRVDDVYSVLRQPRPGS
# [2] = molecular target: T2, Cytochrome P450 3A4 (Homo sapiens, UniProt P08684); details: Potency
# [3] = molecular target: T3, Ubiquitin-conjugating enzyme E2 N (Homo sapiens, UniProt P61088); format: functional;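 note: Dose-response confirmation in a TR-FRET assay detecting UBC13-driven polyubiquitin chain formation, inhibition measured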
# T3 sequence (P61088 whole entry): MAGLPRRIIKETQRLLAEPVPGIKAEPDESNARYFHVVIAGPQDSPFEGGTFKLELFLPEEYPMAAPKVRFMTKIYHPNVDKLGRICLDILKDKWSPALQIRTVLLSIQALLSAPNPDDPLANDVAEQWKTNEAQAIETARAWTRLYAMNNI
# [4] = inhibitors of firefly luciferase expression or activity, dose response, H4 neuroglioma cells, luminescence (AID 1990); format: functional, cell-based
# [5] = inhibitors of SNCA 5'UTR-driven reporter translation, confirmation, H4 neuroglioma cells, luminescence (AID 1988); format: functional, cell-based
# [6] = Luminescence Cell-Based Dose Response HTS to Identify Inhibitors of 5'UTR Stem-Loop Driven Prion Protein mRNA Translation in H4 Neuroglioblastoma Cells. [Related pubchem assays: 1827 (Project Summary), 1813 (Primary HTS)]; format: functional
# [7] = molecular target: T4, Calpain-2 catalytic subunit (Sus scrofa, UniProt P43367); test: pig calpain II inhibitor potency, dose response, biochemical, fluorogenic peptide substrate (AID 1420); format: functional
# T4 sequence (P43367 whole entry): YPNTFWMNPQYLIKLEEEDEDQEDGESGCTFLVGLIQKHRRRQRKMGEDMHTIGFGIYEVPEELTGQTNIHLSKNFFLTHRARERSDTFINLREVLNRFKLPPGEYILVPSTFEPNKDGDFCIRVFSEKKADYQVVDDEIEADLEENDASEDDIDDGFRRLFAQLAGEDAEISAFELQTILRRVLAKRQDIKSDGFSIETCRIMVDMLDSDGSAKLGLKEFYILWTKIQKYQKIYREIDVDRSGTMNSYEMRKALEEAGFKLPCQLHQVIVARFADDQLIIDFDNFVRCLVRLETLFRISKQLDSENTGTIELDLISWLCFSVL
# [8] = THP-1 cell cytotoxicity, dose response, cytotoxicity control for Vif-APOBEC3G degradation inhibitor project, THP-1 cells (AID 1117359); format: functional; details: Human immunodeficiency virus 1, THP-1
# [9] = inhibitors of intracellular T. cruzi replication, confirmation, NIH3T3 host cells, beta-gal luminescence (AID 2044); format: functional, cell-based;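 note: intracellular parasites grown in NIH/3T3 mouse fibroblasts as host cells; luminescent beta-galactosidase reporter signal from transgenic T. cruzi replicating inside host cells; inhibitors lower the luminescence signal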
# [10] = molecular target: T2, Cytochrome P450 3A4
# [11] = cytotoxicity toward NIH3T3 fibroblasts, dose response, counter-screen, cell-based, ATP luminescence, mouse fibroblasts (AID 2010); format: functional;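 note: cells exposed to compound for about 90 hours before reading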
# [12] = molecular target: T5, High affinity choline transporter 1 (Homo sapiens, UniProt Q9GZV3); test: CHT inhibitors, dose response, cell-based, 5-point CRC, membrane potential dye (AID 504840); format: functional
# T5 sequence (Q9GZV3 whole entry): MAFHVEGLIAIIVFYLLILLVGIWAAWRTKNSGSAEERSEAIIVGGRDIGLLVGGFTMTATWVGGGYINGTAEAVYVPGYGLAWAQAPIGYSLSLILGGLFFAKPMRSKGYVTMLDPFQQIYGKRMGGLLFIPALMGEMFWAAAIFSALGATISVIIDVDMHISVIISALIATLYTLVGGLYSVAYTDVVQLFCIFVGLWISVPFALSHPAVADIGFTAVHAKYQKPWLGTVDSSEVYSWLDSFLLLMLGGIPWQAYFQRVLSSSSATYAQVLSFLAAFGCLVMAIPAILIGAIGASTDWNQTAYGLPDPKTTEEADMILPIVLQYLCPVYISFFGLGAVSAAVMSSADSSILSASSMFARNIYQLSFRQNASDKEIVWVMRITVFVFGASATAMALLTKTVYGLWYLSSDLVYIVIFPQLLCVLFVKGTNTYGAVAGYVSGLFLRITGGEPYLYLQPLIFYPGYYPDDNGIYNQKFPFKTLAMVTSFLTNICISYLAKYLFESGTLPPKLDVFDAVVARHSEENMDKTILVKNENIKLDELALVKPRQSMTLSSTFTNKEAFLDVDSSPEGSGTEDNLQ
# [13] = molecular target: Heat shock protein HSP 90-alpha (Homo sapiens, UniProt P07900); format: functional, organism-based
# [14] = molecular target: T6, Corticotropin-releasing factor receptor 2/Corticotropin-releasing factor-binding protein (Homo sapiens, UniProt P24387+Q13324); test: activators of CRF receptor 2 with binding protein – uHTS hits, confirmation (AID 602473); format: functional; details: read-out: EC50_Mean
# T6 sequence (Q13324 whole entry): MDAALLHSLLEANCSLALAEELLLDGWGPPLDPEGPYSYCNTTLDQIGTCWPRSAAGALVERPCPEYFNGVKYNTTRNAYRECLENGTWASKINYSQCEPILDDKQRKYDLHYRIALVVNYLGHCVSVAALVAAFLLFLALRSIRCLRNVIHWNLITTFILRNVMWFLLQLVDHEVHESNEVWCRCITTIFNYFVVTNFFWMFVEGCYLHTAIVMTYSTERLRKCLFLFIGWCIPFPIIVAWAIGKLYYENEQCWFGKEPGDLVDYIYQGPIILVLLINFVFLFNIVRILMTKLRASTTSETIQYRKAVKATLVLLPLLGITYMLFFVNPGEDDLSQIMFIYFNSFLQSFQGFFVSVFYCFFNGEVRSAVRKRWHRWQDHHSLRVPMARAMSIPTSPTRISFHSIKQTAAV
# T6 sequence (P24387 whole entry): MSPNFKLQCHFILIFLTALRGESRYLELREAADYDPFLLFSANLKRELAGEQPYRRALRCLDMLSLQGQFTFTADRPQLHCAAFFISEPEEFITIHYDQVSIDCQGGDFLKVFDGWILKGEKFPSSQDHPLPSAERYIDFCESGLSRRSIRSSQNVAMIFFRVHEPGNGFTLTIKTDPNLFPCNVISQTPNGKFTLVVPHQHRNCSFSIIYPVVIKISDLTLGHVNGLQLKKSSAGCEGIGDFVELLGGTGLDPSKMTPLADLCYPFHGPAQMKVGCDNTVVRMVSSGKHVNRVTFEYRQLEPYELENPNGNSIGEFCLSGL
# [15] = P. falciparum Dd2 growth inhibitors, dose response, SYBR Green, cherry-picked samples (AID 1159567); format: functional, cell-based
# [16] = test system: INS1; test: beta cell apoptosis inhibitors, cytokine rescue, dose response, luminescence, retest (AID 449756); format: functional, cell-based; details: Rattus norvegicus;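 note: cell death triggered by IL-1 beta plus TNF-alpha plus IFN-gamma mixture; protective hits raise ATP signal compared with cytokine alone wells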
# [17] = Luminescence Cell-Based Dose Retest to Confirm Inhibitors of Cancer Stem Cells. [Related pubchem assays (depositor defined):AID2717, AID2721]; format: functional; details: Homo sapiens
# [18] = microbe, parasite or virus in culture; format: functional; details: Mycobacterium tuberculosis
# [19] = HepG2 cell cytotoxicity, dose response, cytotoxicity control for Shn3 inhibitor project, CellTiter-Glo, cherry-picked (AID 624134); format: functional, cell-based
# [20] = Shn3 3'UTR reporter inhibitors, dose response, cell-based, Clone20 osteoblasts, firefly luciferase, cherry-picked (AID 624132); format: functional;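 note: firefly luciferase luminescence from reporter carrying the Shn3 3'UTR in osteoblasts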
# T2 sequence (P08684 whole entry): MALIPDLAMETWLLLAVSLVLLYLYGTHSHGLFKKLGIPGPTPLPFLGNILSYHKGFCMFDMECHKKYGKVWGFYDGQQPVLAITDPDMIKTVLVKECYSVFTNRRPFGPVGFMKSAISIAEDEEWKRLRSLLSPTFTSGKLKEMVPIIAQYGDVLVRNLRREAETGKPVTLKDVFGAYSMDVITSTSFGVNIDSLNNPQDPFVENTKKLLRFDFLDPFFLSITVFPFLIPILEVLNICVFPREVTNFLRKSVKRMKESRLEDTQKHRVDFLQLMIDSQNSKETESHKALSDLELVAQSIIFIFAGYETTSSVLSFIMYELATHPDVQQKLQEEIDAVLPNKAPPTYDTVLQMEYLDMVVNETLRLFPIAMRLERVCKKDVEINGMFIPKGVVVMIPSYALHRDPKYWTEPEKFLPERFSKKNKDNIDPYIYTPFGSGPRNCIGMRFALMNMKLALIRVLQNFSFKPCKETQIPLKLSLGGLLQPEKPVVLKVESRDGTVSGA
smiles,measurement,setting,value
CCN(CC)CCNC(C(=O)Nc1cc(C(F)(F)F)ccc1Cl)c1ccccc1 (stereo unspecified),IC50,[1],9.32 µM (active)
O=C(c1nc2ccc(Cl)cn2c1CN1CCCC1)N1CCc2ccccc2C1,IC50,[1],17.5 µM (active)
COc1ccc(-c2coc3ccc(OC4OC(COC(C)=O)C(OC(C)=O)C(OC(C)=O)C4OC(C)=O)cc3c2=O)cc1 (stereo unspecified),AC50,[2],1.58 µM (inconclusive)
COC(=O)C1=C(C)N(Cc2ccccc2)c2c(C(=O)OC)c(C(=O)OC)c(C(=O)OC)c(=O)n2C1c1ccccc1 (stereo unspecified),AC50,[2],5.01 µM (inconclusive) and 3.98 µM (inconclusive)
CCCN(CCC)CCNC(=O)c1cc2c(=O)n(CC)c3ccccc3c2s1,IC50,[3],> 20 µM (inactive)
O=C1COc2ccc(C(=O)COC(=O)/C=C/c3ccco3)cc2N1,IC50,[1],13.4 µM (active)
Cn1c(NCc2ccccc2)nc2c1c(=O)n(Cc1ccc(Br)cc1)c(=O)n2C,EC50,[4],13.5 µM (active)
same,EC50,[5],12.4 µM (active)
same,EC50,[6],18 µM (active)
same,IC50,[7],5.48 µM (active)
Cc1nc(Nc2ccccc2)c2nc(-c3ccccc3)n(CCCN3CCCCC3C)c2n1 (stereo unspecified),AC50,[2],12.6 µM (inconclusive)
CCc1ccc(C(=O)Nc2cccnc2Oc2ccc(Cl)cc2)cc1,CC50,[8],18.4 µM (active)
O=C1CC[C@@]23/C=C/C(=O)NCCCCNCCCNC(=O)/C=C/c4ccc(c2c4)OC3C1 (stereo partly specified),AC50,[2],39.8 µM (inconclusive)
O=NN(O)c1ccccc1,AC50,[2],31.6 µM (inconclusive)
CCOC(=O)c1c(CN2CCCCC2)oc2ccc(O)cc12,IC50,[3],> 20 µM (inactive)
N#Cc1c(N2CCN(C(=O)c3ccccc3Cl)CC2)nc(-c2ccccc2)c2c1CCCC2,EC50,[9],2.36 µM (active)
same,AC50,[10],inconclusive
same,EC50,[11],> 60 µM (not active)
Cc1cc2nc(C)c(Cl)c(O)n2n1,IC50,[12],13.2 µM (active)
O=C(COc1ccc([N+](=O)[O-])cc1)Nc1ccc(C(=O)Nc2ccccc2C(=O)O)cc1,IC50,[1],12.3 µM (active)
COc1ccc(OCC(=O)OCCN(C)C)cc1,IC50,[12],14.5 µM (active)
Cc1cccc(OCCCC(=O)NNC(=O)c2ccccn2)c1,IC50,[3],> 20 µM (inactive)
Cc1ccc2nsnc2c1S(=O)(=O)N1CCN(CCc2ccccc2)CC1,IC50,[12],11.8 µM (active)
O=C1C2C3C=CC(CNS(=O)(=O)c4ccccc4)(O3)C2C(=O)N1c1ccc(Cl)cc1 (stereo unspecified),AC50,[13],7.09 µM (active)
CCCCNc1nc(C)nc2c1nc(C)n2CCC,AC50,[2],31.6 µM (inconclusive)
O=C(Nc1ccc(Oc2ccccc2)cc1)C1CCCN(c2ncccn2)C1 (stereo unspecified),IC50,[7],14.7 µM (not active)
same,EC50,[14],> 53 µM (inactive)
CC(=O)OC1CC(OC(C)=O)[C@]2(C)C(CC(=O)[C@]3(C)C2CC[C@@]2(C)C(C(=O)O)OC(=O)C4OC423)C1(C)C (stereo partly specified),AC50,[2],39.8 µM (inconclusive)
COC(=O)C1(C)C=CC2(CCCCC2)N1C(C)=O (stereo unspecified),AC50,[2],15.8 µM (inconclusive)
COc1ccc(-c2cc(C(=O)N(C)CC(=O)Nc3ccccc3Br)c3ccccc3n2)cc1OC,CC50,[8],> 40 µM (active)
O=C(CCCCCCCCC(=O)N/N=C/c1ccco1)N/N=C/c1ccco1,IC50,[1],11.5 µM (active)
CC(SCc1ccccc1)C(=O)N/N=C/c1ccc(OCC(=O)NCc2ccco2)cc1 (stereo unspecified),IC50,[12],2 µM (active)
CCCC(=O)Nc1ccc2c(c1)OC[C@H](C)N(Cc1ccc(-c3ccccn3)cc1)C[C@H](C)[C@H](OC)CN(C)C2=O,AC50,[15],4.66 µM (active)
COc1ccc2c3c([nH]c2c1)[C@@H](CO)N(Cc1cc(F)ccc1F)CC31CCN(C(=O)C2CCC2)CC1,AC50,[15],3.77 µM (active)
COc1ccc(C#Cc2ccc([C@H]3[C@H]4CN(C(=O)Nc5ccccc5)CCCCN4[C@H]3CO)cc2)cc1,AC50,[15],4.8 µM (active)
COc1ccc2c3c([nH]c2c1)[C@H](CO)N(Cc1ccccc1Cl)CC31CCN(C(C)=O)CC1,AC50,[15],2.8 µM (active)
CCCNC[C@H]1[C@@H](c2ccc(C3=CCCCC3)cc2)[C@@H](CO)N1C(=O)C1CCC1,AC50,[15],4.2 µM (active)
CCCCCCN(C(=O)CCCCCN1C(=O)NC(c2ccc(C(C)(C)C)cc2)C(C(=O)OCc2ccccc2)=C1C)C(C(=O)NCCCC)c1ccc(OCC(=O)OC)c(C(=O)OC)c1 (stereo unspecified),CC50,[8],13.2 µM (active)
CC(=O)OCC1=C(C(=O)O)N2C(=O)[C@@H](NC(=O)Cc3cccs3)[C@H]2SC1 [CEPHALOTHIN],IC50,[1],2.79 µM (active)
Clc1ccc(C(Cn2ccnc2)OCc2csc3c(Cl)cccc23)c(Cl)c1 (stereo unspecified) [SERTACONAZOLE NITRATE],AC50,[16],10 µM (active)
same,AC50,[13],0.233 µM (active)
same,AC50,[17],1.85 µM (active)
same,CC50,[18],24.4 µM (active)
CC(C)N1CCN(c2ccc(OCC3COC(Cn4cncn4)(c4ccc(Cl)cc4Cl)O3)cc2)CC1 (stereo unspecified) [TERCONAZOLE],AC50,[19],21.2 µM (active)
same,AC50,[13],2.19 µM (active)
same,AC50,[20],52.1 µM (active)
